Test results as given in PMC9578396, “Intrinsic Antibacterial Activity of Xeruborbactam In Vitro: Assessing Spectrum and Mode of Action” (Antimicrobial Agents and Chemotherapy, 2022).
Where “and” joins values, the source holds several entries; their conditions need not be identical. Equal entries are not always repeated. Where two headings read alike, the source gives them in different places.

Legend:
Pseudomonas aeruginosa = assay: Broth microdilution MIC (CLSI), Pseudomonas aeruginosa; assay type: cell-based; conditions: for MIC50 / MIC90: 506 isolates
Method in brief: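 MICs by CLSI broth microdilution in in-house panels. Strains tested were engineered strains carrying porin and efflux mutation combinations, KPC-producing clinical isolates and derivatives cured of KPC plasmids, and KPC-producing clinical isolates enriched for porin mutations.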

PBP1a [1] = molecular target: PBP1a (Acinetobacter baumannii, UniProt A0ABX6CK30); assay: Gel-based Bocillin FL competition PBP binding assay
Procedure: (§1) Ten milliliters of overnight bacterial culture was inoculated in 1 L of LB medium and grown to an OD600 of 0.7 to 0.9. The cell pellet was washed once with 50 mL of solution containing 100 mM Na-phosphate at pH 7.0 and 100 mM NaCl and resuspended in 10 mL of the same buffer with one tablet of EDTA-free mini-protease inhibitor and 10 mg of lysozyme. Cell suspensions were incubated for 45 min at 37°C, and then 200 μL of DNase I was added along with MgSO4 (to a final concentration of 10 mM), followed by three cycles of freeze-thawing (10 min and 20 min, respectively). Four cycles of sonication at maximum power were performed next, each cycle lasting for 30 s with 1 min on ice between cycles. The cell suspension was centrifuged at 12,000 × g for 10 min at 4°C. The supernatant was collected and centrifuged at 100,000 × g for 45 min at 4°C. The pellet was washed three times with 10 mL of 100 mM Na-phosphate, pH 7.0, by resuspension and subsequent centrifugation at 100,000 × g for 10 min at 4°C. The pellet was finally resuspended in 1.5 mL of 100 mM Na-phosphate, pH 7.0, and passed several times through a Dounce homogenizer (tight pestle). Membrane preparations were aliquoted and kept at −80°C.
(§2) Five microliters of total bacterial membrane preparation was mixed with 5 μL of a test compound at a desired concentration in 100 mM Na-phosphate buffer, pH 7.0. Incubation of bacterial membrane preparations with control beta-lactams was performed for 10 min at 30°C; xeruborbactam was incubated with membrane preparations for 1 h at 30°C. Five microliters of 150 μM Bocillin FL fluorescent probe (Thermo Fisher Scientific) was added, and the reaction mixture was incubated for an additional 10 min at 30°C in the case of beta-lactams or for 20 min on ice (0°C) in the case of xeruborbactam. We believe that the 0°C temperature is required to prevent displacement of xeruborbactam from its complex by the Bocillin probe. At the end of the incubation step, 15 μL of 2× SDS sample loading buffer was added, and the reaction mixture was incubated for 5 min at 95°C. Twenty-five microliters of the reaction mixture was then loaded on an 8% SDS Tris-glycine gel (Thermo Fisher Scientific). At the end of the run, the gel was briefly rinsed with water and fixed in 10% acetic acid, 40% methanol for 20 min. After an additional wash in water for 30 min, the gel was scanned on a Typhoon Trio+ Imager using a blue laser filter (excitation, 488 nm, and emission, 520 nm). Densitometry of the gel images was performed using ImageQuant software (Molecular Dynamics). IC50 values were calculated with Prism software (GraphPad).

PBP3 [2] = molecular target: PBP3 (Klebsiella pneumoniae, UniProt A0A0H3GN85); assay: as above
Procedure: as §1, §2

PBP3 [3] = molecular target: PBP3 (Acinetobacter baumannii, UniProt A0ABX6CK25); assay: as above
Procedure: as §1, §2

PBP1a [4] = molecular target: T1, PBP1a (Escherichia coli, UniProt P02918); assay: as above
T1 construct: endogenous in cells; host or cells: Escherichia coli ECM5497 (MG1655), total membrane preparation
Procedure: as §1, §2

PBP1a [5] = molecular target: PBP1a (Klebsiella pneumoniae, UniProt A0A0H3GZF1); assay: as above
Procedure: as §1, §2

PBP1b = molecular target: T2, PBP1b (Escherichia coli, UniProt P02919); assay: as above
T2 construct: endogenous in cells; host or cells: Escherichia coli ECM5497 (MG1655), total membrane preparation
Procedure: as §1, §2

PBP2 = PBP2 (Klebsiella pneumoniae, UniProt A6T696); assay: as above
Procedure: as §1, §2

[6] = Pseudomonas aeruginosa, strain PAM1032, nalB (MexAB-OprM overexpression)
[7] = Pseudomonas aeruginosa, strain PAM1033, nfxB (MexCD-OprJ overexpression)
[8] = Pseudomonas aeruginosa, strain PAM1034, nfxC (MexEF-OprN overexpression)
[9] = Pseudomonas aeruginosa, strain PAM1106, mexA::Tet
[10] = Pseudomonas aeruginosa, strain PAM1154, oprM::Hg

T2 sequence (P02919 whole entry): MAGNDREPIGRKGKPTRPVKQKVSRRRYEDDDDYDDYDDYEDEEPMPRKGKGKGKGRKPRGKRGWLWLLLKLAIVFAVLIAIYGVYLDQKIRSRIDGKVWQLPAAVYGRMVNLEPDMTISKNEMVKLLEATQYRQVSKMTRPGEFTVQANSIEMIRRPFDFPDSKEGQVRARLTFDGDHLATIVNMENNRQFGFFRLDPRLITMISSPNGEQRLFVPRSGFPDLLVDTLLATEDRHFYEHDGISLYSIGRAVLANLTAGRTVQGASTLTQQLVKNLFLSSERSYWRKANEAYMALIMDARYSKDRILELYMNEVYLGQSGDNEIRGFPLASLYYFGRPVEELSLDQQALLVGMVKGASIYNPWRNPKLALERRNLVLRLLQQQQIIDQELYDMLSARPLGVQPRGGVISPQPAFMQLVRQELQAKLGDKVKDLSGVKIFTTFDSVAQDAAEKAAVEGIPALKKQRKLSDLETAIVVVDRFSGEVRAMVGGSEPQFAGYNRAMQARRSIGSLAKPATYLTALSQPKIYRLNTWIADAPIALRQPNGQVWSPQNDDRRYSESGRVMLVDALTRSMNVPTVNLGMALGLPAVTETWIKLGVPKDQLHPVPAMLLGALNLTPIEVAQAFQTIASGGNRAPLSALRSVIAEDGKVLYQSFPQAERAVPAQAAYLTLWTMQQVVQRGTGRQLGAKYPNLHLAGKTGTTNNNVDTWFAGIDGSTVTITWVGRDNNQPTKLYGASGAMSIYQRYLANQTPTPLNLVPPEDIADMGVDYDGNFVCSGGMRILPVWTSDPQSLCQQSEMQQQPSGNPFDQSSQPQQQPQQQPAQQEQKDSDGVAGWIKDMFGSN
Chain of PBP1a (Acinetobacter baumannii, UniProt A0ABX6CK30) (A0ABX6CK30 entry or part of it): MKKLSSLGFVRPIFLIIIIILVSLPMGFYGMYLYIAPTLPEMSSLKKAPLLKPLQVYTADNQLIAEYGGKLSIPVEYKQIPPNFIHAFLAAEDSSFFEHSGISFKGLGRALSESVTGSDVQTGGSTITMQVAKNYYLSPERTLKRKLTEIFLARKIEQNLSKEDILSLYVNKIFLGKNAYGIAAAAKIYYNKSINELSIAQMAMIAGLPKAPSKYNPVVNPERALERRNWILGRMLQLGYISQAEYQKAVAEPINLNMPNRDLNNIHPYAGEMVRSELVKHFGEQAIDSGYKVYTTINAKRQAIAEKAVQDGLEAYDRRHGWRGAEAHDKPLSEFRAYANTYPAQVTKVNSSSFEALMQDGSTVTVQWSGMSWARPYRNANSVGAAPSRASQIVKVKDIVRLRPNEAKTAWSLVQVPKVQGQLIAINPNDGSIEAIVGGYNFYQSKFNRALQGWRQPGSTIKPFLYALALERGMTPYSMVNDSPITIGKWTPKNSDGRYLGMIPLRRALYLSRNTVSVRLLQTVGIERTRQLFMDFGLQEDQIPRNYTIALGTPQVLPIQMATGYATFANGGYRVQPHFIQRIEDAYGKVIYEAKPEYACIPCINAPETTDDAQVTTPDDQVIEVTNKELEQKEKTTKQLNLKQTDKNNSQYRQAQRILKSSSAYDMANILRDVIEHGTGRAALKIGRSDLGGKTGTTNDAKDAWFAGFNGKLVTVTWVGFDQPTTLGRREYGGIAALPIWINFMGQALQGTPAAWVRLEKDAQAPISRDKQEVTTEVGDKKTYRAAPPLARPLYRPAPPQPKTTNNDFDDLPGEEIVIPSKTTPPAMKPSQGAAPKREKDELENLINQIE
T1 sequence (P02918 whole entry): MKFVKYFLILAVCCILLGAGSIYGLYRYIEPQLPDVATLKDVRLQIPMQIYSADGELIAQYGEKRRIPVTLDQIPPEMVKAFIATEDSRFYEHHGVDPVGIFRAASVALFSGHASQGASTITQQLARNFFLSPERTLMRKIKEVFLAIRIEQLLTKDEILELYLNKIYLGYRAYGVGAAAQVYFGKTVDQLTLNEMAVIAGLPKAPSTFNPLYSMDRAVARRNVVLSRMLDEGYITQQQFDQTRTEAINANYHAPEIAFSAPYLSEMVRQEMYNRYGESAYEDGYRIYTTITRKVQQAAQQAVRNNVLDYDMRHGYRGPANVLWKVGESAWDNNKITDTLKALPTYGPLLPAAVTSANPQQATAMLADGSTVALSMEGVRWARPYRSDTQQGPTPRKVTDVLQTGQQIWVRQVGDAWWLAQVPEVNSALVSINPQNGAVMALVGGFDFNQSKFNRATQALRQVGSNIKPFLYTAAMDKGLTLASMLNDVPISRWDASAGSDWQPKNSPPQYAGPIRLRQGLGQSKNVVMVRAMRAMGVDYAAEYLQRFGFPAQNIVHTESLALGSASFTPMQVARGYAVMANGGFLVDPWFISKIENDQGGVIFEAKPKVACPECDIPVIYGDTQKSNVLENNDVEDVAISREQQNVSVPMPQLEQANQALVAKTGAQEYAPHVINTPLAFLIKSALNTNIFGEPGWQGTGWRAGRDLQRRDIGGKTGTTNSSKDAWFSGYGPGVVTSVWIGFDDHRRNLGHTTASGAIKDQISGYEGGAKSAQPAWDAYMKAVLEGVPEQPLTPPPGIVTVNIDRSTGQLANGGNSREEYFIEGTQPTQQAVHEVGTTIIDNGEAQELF
Chain of PBP3 (Klebsiella pneumoniae, UniProt A0A0H3GN85) (A0A0H3GN85 entry or part of it): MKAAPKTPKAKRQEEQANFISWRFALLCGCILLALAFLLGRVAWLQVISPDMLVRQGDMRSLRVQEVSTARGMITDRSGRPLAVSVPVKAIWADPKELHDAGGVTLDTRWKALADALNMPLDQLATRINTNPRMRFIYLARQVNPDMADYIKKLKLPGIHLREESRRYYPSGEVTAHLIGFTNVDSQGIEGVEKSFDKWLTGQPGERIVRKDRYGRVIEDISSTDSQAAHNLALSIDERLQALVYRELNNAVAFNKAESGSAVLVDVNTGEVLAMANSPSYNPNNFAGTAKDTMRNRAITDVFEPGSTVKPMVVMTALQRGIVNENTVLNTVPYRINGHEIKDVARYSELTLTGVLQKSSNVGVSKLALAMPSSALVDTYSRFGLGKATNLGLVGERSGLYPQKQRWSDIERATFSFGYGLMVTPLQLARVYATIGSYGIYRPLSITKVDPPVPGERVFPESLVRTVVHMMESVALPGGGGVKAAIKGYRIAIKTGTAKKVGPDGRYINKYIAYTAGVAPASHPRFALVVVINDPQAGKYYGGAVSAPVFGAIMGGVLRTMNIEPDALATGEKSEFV
Chain of PBP2 (A6T696 entry or part of it): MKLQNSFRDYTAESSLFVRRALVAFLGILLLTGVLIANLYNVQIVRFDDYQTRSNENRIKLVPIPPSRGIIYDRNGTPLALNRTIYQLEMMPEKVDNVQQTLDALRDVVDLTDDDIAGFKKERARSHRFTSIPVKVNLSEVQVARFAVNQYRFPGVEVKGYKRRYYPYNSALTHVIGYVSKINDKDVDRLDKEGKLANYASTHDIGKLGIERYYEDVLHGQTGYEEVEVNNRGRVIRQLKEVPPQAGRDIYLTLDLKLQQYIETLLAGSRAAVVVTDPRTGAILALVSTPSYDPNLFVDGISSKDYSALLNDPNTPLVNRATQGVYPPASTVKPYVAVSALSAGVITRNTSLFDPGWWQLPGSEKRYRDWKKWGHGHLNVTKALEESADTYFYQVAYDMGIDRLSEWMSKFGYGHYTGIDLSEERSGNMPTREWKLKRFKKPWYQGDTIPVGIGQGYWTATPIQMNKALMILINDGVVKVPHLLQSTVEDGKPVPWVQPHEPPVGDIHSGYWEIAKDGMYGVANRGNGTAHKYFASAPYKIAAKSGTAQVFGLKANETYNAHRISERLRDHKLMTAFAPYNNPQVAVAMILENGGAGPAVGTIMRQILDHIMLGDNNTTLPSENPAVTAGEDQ
Chain of PBP3 (Acinetobacter baumannii, UniProt A0ABX6CK25) (A0ABX6CK25 entry or part of it): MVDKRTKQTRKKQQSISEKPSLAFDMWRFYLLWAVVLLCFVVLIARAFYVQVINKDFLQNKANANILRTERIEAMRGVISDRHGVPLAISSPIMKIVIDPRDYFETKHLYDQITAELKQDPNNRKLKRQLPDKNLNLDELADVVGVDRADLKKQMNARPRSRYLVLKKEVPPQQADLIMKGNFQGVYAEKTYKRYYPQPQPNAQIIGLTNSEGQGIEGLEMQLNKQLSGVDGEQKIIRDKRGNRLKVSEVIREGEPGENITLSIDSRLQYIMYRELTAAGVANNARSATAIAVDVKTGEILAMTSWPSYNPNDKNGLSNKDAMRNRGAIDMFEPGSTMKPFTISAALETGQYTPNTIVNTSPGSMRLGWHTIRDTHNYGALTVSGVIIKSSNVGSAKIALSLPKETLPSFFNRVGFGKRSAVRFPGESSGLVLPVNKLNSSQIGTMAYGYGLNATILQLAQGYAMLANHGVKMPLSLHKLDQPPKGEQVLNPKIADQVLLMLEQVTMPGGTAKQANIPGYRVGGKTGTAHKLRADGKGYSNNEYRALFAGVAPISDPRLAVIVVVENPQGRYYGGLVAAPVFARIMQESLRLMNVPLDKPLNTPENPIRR

With `C[C@@H](O)[C@H]1C(=O)N2C(C(=O)O)=C(S[C@@H]3CN[C@H](C(=O)N(C)C)C3)[C@H](C)[C@H]12` [Meropenem] the MIC (Pseudomonas aeruginosa; PAM1154 (oprM::Hg), xeruborbactam 0 µg/ml) was 0.5 µg/mL, the MIC (Pseudomonas aeruginosa; Pseudomonas aeruginosa) was 0.25 µg/mL and the MIC (Pseudomonas aeruginosa; Pseudomonas aeruginosa, PAO1) was 0.06 µg/mL and 0.16 µM. It also gave an MIC (Pseudomonas aeruginosa; [6]) of 1 µg/mL, an MIC (Pseudomonas aeruginosa; [7]) of 0.25 µg/mL and an MIC (Pseudomonas aeruginosa; [8]) of 0.5 µg/mL. The MIC (Pseudomonas aeruginosa; [9]) was 0.06 µg/mL, the MIC (Pseudomonas aeruginosa; [10]) was 0.06 µg/mL and the IC50 (PBP1a [1]; read-out: Relative binding IC50, PBP1a; A. baumannii ACM1320 membranes; Bocillin FL step 0°C for xeruborbactam, 30°C for beta-lactams) was 0.07 µM. The IC50 (PBP3 [2]; read-out: Relative binding IC50, PBP3; K. pneumoniae KPM1001 membranes; Bocillin FL step 0°C for xeruborbactam, 30°C for beta-lactams) was 0.24 µM, the IC50 (PBP3 [3]; read-out: Relative binding IC50, PBP3; A. baumannii ACM1320 membranes; Bocillin FL step 0°C for xeruborbactam, 30°C for beta-lactams) was 0.19 µM and the IC50 (PBP1a [4]) was 5.4 µM. It also gave an IC50 (PBP1a [5]; read-out: Relative binding IC50, PBP1a; K. pneumoniae KPM1001 membranes; Bocillin FL step 0°C for xeruborbactam, 30°C for beta-lactams) of 6.6 µM, an IC50 (PBP1b) of 21.1 µM and an IC50 (PBP2) of 0.003 µM.
In the case of `O=C(O)c1c(F)ccc2c1OB(O)[C@@H]1C[C@H]21` [Xeruborbactam], the “isolates with MICs of ≥64 μg/mL” value (Pseudomonas aeruginosa; 506 P. aeruginosa clinical isolates) is reported as 94%, the MIC50 (Pseudomonas aeruginosa; Pseudomonas aeruginosa) is reported as greater than 64 µg/mL and the MIC90 (Pseudomonas aeruginosa; Pseudomonas aeruginosa) is reported as greater than 64 µg/mL. For the same molecule, the MIC50 (Pseudomonas aeruginosa; Pseudomonas aeruginosa, read-out: MIC50) was greater than 64 µg/mL, the MIC90 (Pseudomonas aeruginosa; Pseudomonas aeruginosa, read-out: MIC90) was greater than 64 µg/mL and the MIC (Pseudomonas aeruginosa; Pseudomonas aeruginosa, PAM1154 (oprM::Hg), xeruborbactam 0 µg/ml) was 16 µg/mL. The MIC (Pseudomonas aeruginosa; Pseudomonas aeruginosa, PAO1, Pseudomonas aeruginosa PAM3034 (PAO1), read-out: MIC) was 16 µg/mL and 72 µM, the MIC (Pseudomonas aeruginosa; Pseudomonas aeruginosa, after inactivation of MexAB-OprM, read-out: MIC) was 16 µg/mL and the MIC (Pseudomonas aeruginosa; Pseudomonas aeruginosa, before inactivation of MexAB-OprM (wild type), read-out: MIC) was 256 µg/mL. For the same molecule, the MIC (Pseudomonas aeruginosa; Pseudomonas aeruginosa, strain 1089003, alone, read-out: MIC) was 16 µg/mL, the MIC (Pseudomonas aeruginosa; Pseudomonas aeruginosa, strain 1097436, alone, read-out: MIC) was 8 µg/mL and the MIC (Pseudomonas aeruginosa; Pseudomonas aeruginosa, strain 1098084, alone, read-out: MIC) was 16 µg/mL. For the same molecule, the MIC (Pseudomonas aeruginosa; Pseudomonas aeruginosa, strain 1098916, alone, read-out: MIC) was 32 µg/mL, the MIC (Pseudomonas aeruginosa; Pseudomonas aeruginosa, strain 1100407, alone, read-out: MIC) was 32 µg/mL and the MIC (Pseudomonas aeruginosa; Pseudomonas aeruginosa, strain 1104100, alone, read-out: MIC) was 16 µg/mL. It also gave an MIC (Pseudomonas aeruginosa; Pseudomonas aeruginosa, strain 1104168, alone, read-out: MIC) of 32 µg/mL, an MIC (Pseudomonas aeruginosa; Pseudomonas aeruginosa, strain 1104284, alone, read-out: MIC) of 8 µg/mL and an MIC (Pseudomonas aeruginosa; Pseudomonas aeruginosa, strain 1106973, alone, read-out: MIC) of 16 µg/mL. The MIC (Pseudomonas aeruginosa; Pseudomonas aeruginosa, strain 1108885, alone, read-out: MIC) was 16 µg/mL, the MIC (Pseudomonas aeruginosa; Pseudomonas aeruginosa, strain 1109744, alone, read-out: MIC) was 16 µg/mL and the MIC (Pseudomonas aeruginosa; Pseudomonas aeruginosa, strain 1113238, alone, read-out: MIC) was 8 µg/mL. The MIC (Pseudomonas aeruginosa; Pseudomonas aeruginosa, strain 1113634, alone, read-out: MIC) was 8 µg/mL, the MIC (Pseudomonas aeruginosa; Pseudomonas aeruginosa, strain 1114012, alone, read-out: MIC) was 8 µg/mL and the MIC (Pseudomonas aeruginosa; Pseudomonas aeruginosa, strain 1116835, alone, read-out: MIC) was 8 µg/mL. The MIC (Pseudomonas aeruginosa; Pseudomonas aeruginosa, strain 1116849, alone, read-out: MIC) was 16 µg/mL, the MIC (Pseudomonas aeruginosa; Pseudomonas aeruginosa, strain 1118234, alone, read-out: MIC) was 16 µg/mL and the MIC (Pseudomonas aeruginosa; Pseudomonas aeruginosa, strain 1119418, alone, read-out: MIC) was 8 µg/mL. It also gave an MIC (Pseudomonas aeruginosa; Pseudomonas aeruginosa, strain 1124145, alone, read-out: MIC) of 16 µg/mL, an MIC (Pseudomonas aeruginosa; Pseudomonas aeruginosa, strain 1125954, alone, read-out: MIC) of 32 µg/mL and an MIC (Pseudomonas aeruginosa; Pseudomonas aeruginosa, strain 1125996, alone, read-out: MIC) of 32 µg/mL. For the same molecule, the MIC (Pseudomonas aeruginosa; Pseudomonas aeruginosa, strain 1126521, alone, read-out: MIC) was 8 µg/mL, the MIC (Pseudomonas aeruginosa; Pseudomonas aeruginosa, strain 1126957, alone, read-out: MIC) was 8 µg/mL and the MIC (Pseudomonas aeruginosa; Pseudomonas aeruginosa, strain 1126982, alone, read-out: MIC) was 32 µg/mL. The MIC (Pseudomonas aeruginosa; Pseudomonas aeruginosa, strain 1128636, alone, read-out: MIC) was 32 µg/mL, the MIC (Pseudomonas aeruginosa; Pseudomonas aeruginosa, strain 1128674, alone, read-out: MIC) was 16 µg/mL and the MIC (Pseudomonas aeruginosa; Pseudomonas aeruginosa, strain 1130387, alone, read-out: MIC) was 16 µg/mL. For the same molecule, the MIC (Pseudomonas aeruginosa; Pseudomonas aeruginosa, strain 1130447, alone, read-out: MIC) was 16 µg/mL, the MIC (Pseudomonas aeruginosa; Pseudomonas aeruginosa, strain 1130475, alone, read-out: MIC) was 16 µg/mL and the MIC (Pseudomonas aeruginosa; Pseudomonas aeruginosa, strain 1131123, alone, read-out: MIC) was 8 µg/mL. The MIC (Pseudomonas aeruginosa; Pseudomonas aeruginosa, strain PAM1020, wild type, read-out: MIC) was 256 µg/mL, the MIC (Pseudomonas aeruginosa; [6]) was greater than 256 µg/mL and the MIC (Pseudomonas aeruginosa; [7]) was 128 µg/mL. It also gave an MIC (Pseudomonas aeruginosa; [8]) of 256 µg/mL, an MIC (Pseudomonas aeruginosa; [9]) of 16 µg/mL and an MIC (Pseudomonas aeruginosa; Pseudomonas aeruginosa, strain PAM1154 (Fig. 6), read-out: MIC) of 32 µg/mL. For the same molecule, the MIC (Pseudomonas aeruginosa; [10]) was 16 µg/mL, the MIC (Pseudomonas aeruginosa; Pseudomonas aeruginosa, strain PAM1154, read-out: MIC) was 16 µg/mL and the “fold reduction of MIC” value (Pseudomonas aeruginosa; inactivation of MexAB-OprM) was 16 fold. For the same molecule, the “fold MIC decrease” value (Pseudomonas aeruginosa; mexCD-oprJ-overexpressing strain PAM1033) was 2 fold, the IC50 (PBP1a [1]; A. baumannii ACM1320 membranes; Bocillin FL step 0°C for xeruborbactam, 30°C for beta-lactams; read-out: Relative binding IC50, PBP1a) was 1.4 ± 0.5 µM and the IC50 (PBP3 [2]; K. pneumoniae KPM1001 membranes; Bocillin FL step 0°C for xeruborbactam, 30°C for beta-lactams; read-out: Relative binding IC50, PBP3) was 55 ± 8 µM. The IC50 (PBP3 [3]; A. baumannii ACM1320 membranes; Bocillin FL step 0°C for xeruborbactam, 30°C for beta-lactams; read-out: Relative binding IC50, PBP3) was 135 ± 40 µM, the IC50 (PBP1a [4]; E. coli ECM5497 membranes, Bocillin FL step 0°C for xeruborbactam, 30°C for beta-lactams, read-out: Relative binding IC50, PBP1a) was 47 ± 13 µM and the IC50 (PBP1a [5]; K. pneumoniae KPM1001 membranes; Bocillin FL step 0°C for xeruborbactam, 30°C for beta-lactams; read-out: Relative binding IC50, PBP1a) was 41 ± 6 µM. The IC50 (PBP1b; E. coli ECM5497 membranes, Bocillin FL step 0°C for xeruborbactam, 30°C for beta-lactams, read-out: Relative binding IC50, PBP1b) was 56 ± 18 µM and the IC50 (PBP2; K. pneumoniae KPM1001 membranes, Bocillin FL step 0°C for xeruborbactam, 30°C for beta-lactams, read-out: Relative binding IC50, PBP2) was 51 ± 15 µM.
